Laboratory results: patent US10227344B2, “CK2 inhibitors, compositions and methods thereof” (Polaris Pharmaceuticals, Inc., priority 2016, dated 2019)

Key:
Assay type in all cases: cell-based
[1] = system: Mia-Paca-2; assay: Cancer cell panel, cell viability (resazurin): Pancreatic, Mia-Paca-2; conditions: Mia-Paca-2 (Pancreatic), 72 hours; labelled drug combined with Example 3
[2] = system: Raji; assay: Cancer cell panel, cell viability (resazurin): Burkitt's Lymphoma, Raji; conditions: 72 hours, labelled drug combined with Example 3
[3] = system: HL60; assay: Cancer cell panel, cell viability (resazurin): Leukemia, HL60; conditions: 72 hours, labelled drug combined with Example 3
Method: (§1) Cells were plated in 96-well plates and treated for 72 hours with a serially diluted CK2 inhibitor or anti-cancer drug or their combination. The suspension cell lines were treated right after plating, while the adherent cells were allowed to attach overnight prior to the start of the treatment.
(§2) Cell viability was determined by adding resazurin to cell cultures and measuring fluorescence with a plate reader. Relative cell viability was calculated by dividing the cell viability signal from a test sample by that of a non-treated control. […] Bliss Independence and Highest Single Agent models were used to determine if there is synergy, additivity or antagonism between the CK2 inhibitor and an anti-cancer drug.

[4] = system: MDA-MB-453; assay: Cancer cell panel, cell viability (resazurin): Breast, MDA-MB-453; conditions: MDA-MB-453 (Breast), 72 hours; labelled drug combined with Example 3
[5] = system: SkBr-3; assay: Cancer cell panel, cell viability (resazurin): Breast, SkBr-3; conditions: SkBr-3 (Breast), 72 hours; labelled drug combined with Example 3
[6] = system: A2780; assay: Cancer cell panel, cell viability (resazurin): Ovarian, A2780; conditions: 72 hours, labelled drug combined with Example 3
Method: as §1, §2

[7] = system: HCT116; assay: Cancer cell panel, cell viability (resazurin): Colon, HCT116; conditions: 72 hours, labelled drug combined with Example 3
[8] = system: MeWO; assay: Cancer cell panel, cell viability (resazurin): Melanoma, MeWO; conditions: 72 hours, labelled drug combined with Example 3
[9] = system: H460; assay: Cancer cell panel, cell viability (resazurin): NSCLC, H460; conditions: 72 hours, labelled drug combined with Example 3
[10] = system: SK-MEL-3; assay: Cancer cell panel, cell viability (resazurin): Melanoma, SK-MEL-3; conditions: SK-MEL-3 (Melanoma), 72 hours; labelled drug combined with Example 3
Method: as §1, §2

[11] = system: K562; assay: Cancer cell panel, cell viability (resazurin): Leukemia, K562; conditions: 72 hours, labelled drug combined with Example 3
Method: as §1, §2

[12] = system: 786-O; assay: Cancer cell panel, cell viability (resazurin): Renal, 786-O; conditions: 786-O (Renal), 72 hours; labelled drug combined with Example 3
Method: as §1, §2

[13] = system: BT-474; assay: Cancer cell panel, cell viability (resazurin): Breast, BT-474; conditions: BT-474 (Breast), 72 hours; labelled drug combined with Example 3
[14] = system: A375; assay: Cancer cell panel, cell viability (resazurin): Melanoma, A375; conditions: 72 hours, labelled drug combined with Example 3
[15] = system: Ramos; assay: Cancer cell panel, cell viability (resazurin): Burkitt's Lymphoma, Ramos; conditions: 72 hours, labelled drug combined with Example 3
[16] = system: BT-20; assay: Cancer cell panel, cell viability (resazurin): Breast, BT-20; conditions: BT-20 (Breast), 72 hours; labelled drug combined with Example 3
[17] = system: ZR-75-1; assay: Cancer cell panel, cell viability (resazurin): Breast, ZR-75-1; conditions: ZR-75-1 (Breast), 72 hours; labelled drug combined with Example 3
[18] = system: H2122; assay: Cancer cell panel, cell viability (resazurin): NSCLC, H2122; conditions: 72 hours, labelled drug combined with Example 3
[19] = system: EOL-1; assay: Cancer cell panel, cell viability (resazurin): Leukemia, EOL-1; conditions: EOL-1 (Leukemia), 72 hours; labelled drug combined with Example 3
[20] = system: T47D; assay: Cancer cell panel, cell viability (resazurin): Breast, T47D; conditions: 72 hours, labelled drug combined with Example 3
Method: as §1, §2

[21] = system: NAMALWA; assay: Cancer cell panel, cell viability (resazurin): Burkitt's Lymphoma, NAMALWA; conditions: 72 hours, labelled drug combined with Example 3
[22] = system: RPMI8226; assay: Cancer cell panel, cell viability (resazurin): multiple myeloma, RPMI8226; conditions: 72 hours, labelled drug combined with Example 3
[23] = system: A549; assay: Cancer cell panel, cell viability (resazurin): NSCLC, A549; conditions: 72 hours, labelled drug combined with Example 3
Method: as §1, §2

SMILES: Nc1ccn([C@@H]2O[C@H](CO)[C@@H](O)C2(F)F)c(=O)n1 [Gemcitabine, gemcitabine]
- synergy, additivity or antagonism of the combination of Example 3 with the anti-cancer drug [1]: + + (Slight synergy relative to each agent alone (CI = 0.75-0.9 by Bliss Independence Model))
- synergy, additivity or antagonism of the combination of Example 3 with the anti-cancer drug [2]: + + (Slight synergy relative to each agent alone (CI = 0.75-0.9 by Bliss Independence Model))
- synergy, additivity or antagonism of the combination of Example 3 with the anti-cancer drug [3]: + + (Slight synergy relative to each agent alone (CI = 0.75-0.9 by Bliss Independence Model))
- synergy, additivity or antagonism of the combination of Example 3 with the anti-cancer drug [4]: + + (Slight synergy relative to each agent alone (CI = 0.75-0.9 by Bliss Independence Model))
- synergy, additivity or antagonism of the combination of Example 3 with the anti-cancer drug [5]: + (Additive relative to each agent alone (CI = 0.9-1 by Bliss Independence Model and <0.9 by Highest Single Agent Model))
- synergy, additivity or antagonism of the combination of Example 3 with the anti-cancer drug [6]: + + + (Synergy relative to each agent alone (CI = 0.4-0.74 by Bliss Independence Model))
- synergy, additivity or antagonism of the combination of Example 3 with the anti-cancer drug [7]: + (Additive relative to each agent alone (CI = 0.9-1 by Bliss Independence Model and <0.9 by Highest Single Agent Model))
- synergy, additivity or antagonism of the combination of Example 3 with the anti-cancer drug [8]: + (Additive relative to each agent alone (CI = 0.9-1 by Bliss Independence Model and <0.9 by Highest Single Agent Model))
- synergy, additivity or antagonism of the combination of Example 3 with the anti-cancer drug [9]: + + (Slight synergy relative to each agent alone (CI = 0.75-0.9 by Bliss Independence Model))
- synergy, additivity or antagonism of the combination of Example 3 with the anti-cancer drug [10]: + (Additive relative to each agent alone (CI = 0.9-1 by Bliss Independence Model and <0.9 by Highest Single Agent Model))
- synergy, additivity or antagonism of the combination of Example 3 with the anti-cancer drug [11]: + (Additive relative to each agent alone (CI = 0.9-1 by Bliss Independence Model and <0.9 by Highest Single Agent Model))
- synergy, additivity or antagonism of the combination of Example 3 with the anti-cancer drug [12]: + + + (Synergy relative to each agent alone (CI = 0.4-0.74 by Bliss Independence Model))
- synergy, additivity or antagonism of the combination of Example 3 with the anti-cancer drug [13]: + (Additive relative to each agent alone (CI = 0.9-1 by Bliss Independence Model and <0.9 by Highest Single Agent Model))
- synergy, additivity or antagonism of the combination of Example 3 with the anti-cancer drug [14]: + (Additive relative to each agent alone (CI = 0.9-1 by Bliss Independence Model and <0.9 by Highest Single Agent Model))
- synergy, additivity or antagonism of the combination of Example 3 with the anti-cancer drug [15]: + + (Slight synergy relative to each agent alone (CI = 0.75-0.9 by Bliss Independence Model))
- synergy, additivity or antagonism of the combination of Example 3 with the anti-cancer drug [16]: + (Additive relative to each agent alone (CI = 0.9-1 by Bliss Independence Model and <0.9 by Highest Single Agent Model))
- synergy, additivity or antagonism of the combination of Example 3 with the anti-cancer drug [17]: + (Additive relative to each agent alone (CI = 0.9-1 by Bliss Independence Model and <0.9 by Highest Single Agent Model))
- synergy, additivity or antagonism of the combination of Example 3 with the anti-cancer drug [18]: + + (Slight synergy relative to each agent alone (CI = 0.75-0.9 by Bliss Independence Model))
- synergy, additivity or antagonism of the combination of Example 3 with the anti-cancer drug [19]: + + + + (Strong synergy relative to each agent alone (CI < 0.4 by Bliss Independence Model))
- synergy, additivity or antagonism of the combination of Example 3 with the anti-cancer drug [20]: + (Additive relative to each agent alone (CI = 0.9-1 by Bliss Independence Model and <0.9 by Highest Single Agent Model))
- synergy, additivity or antagonism of the combination of Example 3 with the anti-cancer drug [21]: + + (Slight synergy relative to each agent alone (CI = 0.75-0.9 by Bliss Independence Model))
- synergy, additivity or antagonism of the combination of Example 3 with the anti-cancer drug [22]: + + (Slight synergy relative to each agent alone (CI = 0.75-0.9 by Bliss Independence Model))
- synergy, additivity or antagonism of the combination of Example 3 with the anti-cancer drug [23]: + + + + (Strong synergy relative to each agent alone (CI < 0.4 by Bliss Independence Model))
